In ChEMBL document CHEMBL3425474, “Biphenyl-ethyl-pyrrolidine derivatives as histamine h3 receptor modulators for the treatment of cognitive disorders” (ACS Med Chem Lett, 2015) one finds IC50 data, which are given here for eight compounds.

The target in this experiment is Histamine H3 receptor (Homo sapiens, UniProt Q9Y5N1). Put plainly: Modulation of human histamine H3 receptor expressed in HEK293 cells assessed as change in forskolin-stimulated cAMP level after 1 hr by HTRF assay. Type of experiment: functional, cell-based. For orientation: Changes in cAMP serve as a functional read-out for many G protein-coupled receptors.
Sequence of Histamine H3 receptor (Q9Y5N1 whole entry): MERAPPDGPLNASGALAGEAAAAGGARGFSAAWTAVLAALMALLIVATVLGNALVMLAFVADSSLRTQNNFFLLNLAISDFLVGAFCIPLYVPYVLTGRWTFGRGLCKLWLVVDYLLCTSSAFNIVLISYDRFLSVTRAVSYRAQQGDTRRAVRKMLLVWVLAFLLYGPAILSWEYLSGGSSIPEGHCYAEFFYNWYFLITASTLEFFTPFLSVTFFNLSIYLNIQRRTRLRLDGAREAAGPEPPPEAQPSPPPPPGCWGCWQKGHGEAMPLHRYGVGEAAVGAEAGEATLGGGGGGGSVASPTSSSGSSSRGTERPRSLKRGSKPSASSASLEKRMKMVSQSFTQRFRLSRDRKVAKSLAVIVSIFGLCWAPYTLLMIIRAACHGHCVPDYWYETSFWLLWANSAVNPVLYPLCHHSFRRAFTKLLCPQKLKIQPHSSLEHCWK

In the case of `C[C@@H]1CCCN1CCc1ccc(-c2ccc(NC(=O)CCC(=O)O)cc2)cc1`, the IC50 was determined as 2.5 nM.

Consider `C[C@@H]1CCCN1CCc1ccc(-c2ccc(CCNC(=O)C(C)(C)C(=O)OC(C)(C)C)cc2)cc1`, for which the IC50 amounted to 0.95 nM.

Regarding `COC(=O)CC(=O)NCCc1ccc(-c2ccc(CCN3CCC[C@H]3C)cc2)cc1`, the IC50 worked out at 0.99 nM.

`C[C@@H]1CCCN1CCc1ccc(-c2ccc(C3(NC(=O)CCCC(=O)O)CCCC3)cc2)cc1`: the concentration for half-maximal inhibition (IC50) was determined as 2.1 nM.

With `COC(=O)CC(=O)NC1(c2ccc(-c3ccc(CCN4CCC[C@H]4C)cc3)cc2)CCCC1`, the 50% inhibitory concentration (IC50) was determined as 1.9 nM.

Consider `COC(=O)CCCC(=O)NC1(c2ccc(-c3ccc(CCN4CCC[C@H]4C)cc3)cc2)CCCC1`, for which the IC50 stood at 15 nM.

For `C[C@@H](C(=O)NCCc1ccc(-c2ccc(CCN3CCC[C@H]3C)cc2)cc1)C(=O)OC(C)(C)C`, the IC50 worked out at 2.1 nM.

For the compound `COC(=O)C(C)(C)C(=O)Nc1ccc(-c2ccc(CCN3CCC[C@H]3C)cc2)cc1`, the half-inhibitory concentration (IC50) was 1.2 nM.

For orientation: IC50 means the concentration that gives 50% inhibition.
